ChEMBL document CHEMBL3580609, “Novel phthalimide derivatives with TNF- and IL-1 expression inhibitory and apoptotic inducing properties” (Medchemcomm, 2014)
The source made the active and inactive calls. The rule behind the calls is not given here.

Legend:
[1] = system: Peritoneal macrophage cell; assay: Inhibition of IL-1beta production in LPS-induced mouse peritoneal macrophages at 50 uM incubated for 24 hrs by sandwich ELISA method; format: functional, cell-based
[2] = system: Peritoneal macrophage cell; assay: Inhibition of TNFalpha production in LPS-induced mouse peritoneal macrophages at 50 uM incubated for 24 hrs by sandwich ELISA method; format: functional, cell-based
Jurkat [3] = assay: Inhibition of TNFalpha expression in human Jurkat cells containing GFP gene under control of TNF gene promoter at 100 uM incubated for 24 hrs; format: functional
Jurkat [4] = assay: Induction of total cell death in human Jurkat cells containing GFP gene under control of TNF gene promoter at 10 uM incubated for 24 hrs by propidium iodide staining based assay
Jurkat [5] = assay: Inhibition of TNFalpha expression in human Jurkat cells containing GFP gene under control of TNF gene promoter at 10 uM incubated for 24 hrs; format: functional
Jurkat [6] = assay: Induction of total cell death in human Jurkat cells containing GFP gene under control of TNF gene promoter at 100 uM incubated for 24 hrs by propidium iodide staining based assay
Jurkat [7] = assay: Inhibition of TNFalpha expression in human Jurkat cells containing GFP gene under control of TNF gene promoter incubated for 24 hrs; format: functional, cell-based
Jurkat [8] = assay: Inhibition of TNFalpha expression in human Jurkat cells containing GFP gene under control of TNF gene promoter at 100 uM incubated for 24 hrs relative to thalidomide; format: functional
Jurkat [9] = assay: Induction of apoptosis in human Jurkat cells at 10 uM incubated for 24 hrs by FITC-labeled capsase-3 substrate based Nucview-488 caspase-3 assay; format: functional, cell-based
Jurkat [10] = assay: Induction of apoptosis in human Jurkat cells at 100 uM incubated for 24 hrs by FITC-labeled capsase-3 substrate based Nucview-488 caspase-3 assay; format: functional, cell-based
Mus musculus [11] = organism: Mus musculus; assay: Reduction in serum cholesterol levels in Swiss white mouse after 16 days; format: functional
Mus musculus [12] = organism: Mus musculus; assay: Reduction in serum triglyceride levels in Swiss white mouse after 14 days; format: functional
Jurkat [13] = assay: Inhibition of TNFalpha expression in human Jurkat cells containing GFP gene under control of TNF gene promoter at 10 uM incubated for 24 hrs relative to thalidomide; format: functional

For `C[C@@H](C(=O)NN)N1C(=O)c2ccccc2C1=O`, the inhibition [1] was “Active” and the inhibition [2] was “Active”.

For `CC[C@H](C)[C@@H](C(=O)N/N=C\c1ccccc1)N1C(=O)c2ccccc2C1=O`, the inhibition [1] was “Active”, the inhibition (Jurkat [3]) was “Active” and the Activity (Jurkat [4]) was “Non-toxic”. The inhibition [2] was “Active” and the inhibition (Jurkat [5]) was “Active”.

`CC[C@H](C)[C@@H](C(=O)N/N=C\c1ccc(Cl)c(Cl)c1)N1C(=O)c2ccccc2C1=O` was tested, and the Activity (Jurkat [6]) was “Toxic”, the inhibition [1] was “Active” and the inhibition (Jurkat [7]) was “Dose-dependent effect”. The “fold change (FC)” value (Jurkat [8]) was 3, the inhibition at 100 µM (Jurkat [3]) was 17% and the Activity (Jurkat [4]) was “Non-toxic”. The inhibition [2] was “Active” and the inhibition (Jurkat [5]) was “inactive”.

With `C[C@@H](C(=O)N/N=C\c1ccccc1)N1C(=O)c2ccccc2C1=O` the inhibition [1] was “Active”, the inhibition at 100 µM (Jurkat [3]) was 9.8% and the Activity (Jurkat [9]) was “inactive”. For the same molecule, the Activity (Jurkat [4]) was “Non-toxic”, the inhibition [2] was “Active” and the inhibition at 10 µM (Jurkat [5]) was 9.8%. The Activity (Jurkat [10]) was “inactive”.

With `O=C(N/N=C\c1ccccc1)[C@H](Cc1ccccc1)N1C(=O)c2ccccc2C1=O` the Activity (Jurkat [6]) was “Toxic”, the inhibition [1] was “Active” and the inhibition (Jurkat [7]) was “Dose-dependent effect”. For the same molecule, the “fold change (FC)” value (Jurkat [8]) was 3, the inhibition at 100 µM (Jurkat [3]) was 17% and the inhibition [2] was “Active”. For the same molecule, the inhibition (Jurkat [5]) was “inactive”.

In the case of `CC(=O)c1ccccc1N1C(=O)c2ccccc2C1=O`, the “inhibition (INH)” value (Mus musculus [11]) is reported as 57% and the “inhibition (INH)” value (Mus musculus [12]) is reported as 44%.

`O=C(N/N=C\c1ccc(Cl)cc1)[C@H](Cc1ccccc1)N1C(=O)c2ccccc2C1=O` was tested, and the inhibition (Jurkat [3]) was “Active” and the inhibition (Jurkat [5]) was “Active”.

With `COc1ccc(/C=N\NC(=O)[C@H](C)N2C(=O)c3ccccc3C2=O)cc1` the inhibition [1] was “Active” and the inhibition [2] was “Active”.

`Nc1cccc2c1CN(C1CCC(=O)NC1=O)C2=O` (configuration not stated) [LENALIDOMIDE] was tested, and the Activity (Jurkat [6]) was “Non-toxic”, the “fold change (FC)” value (Jurkat [8]) was 2 and the inhibition at 100 µM (Jurkat [3]) was 14%. For the same molecule, the “fold change (FC)” value (Jurkat [13]) was 2, the Activity (Jurkat [9]) was “Active” and the Activity (Jurkat [4]) was “Non-toxic”. The inhibition at 10 µM (Jurkat [5]) was 14% and the Activity (Jurkat [10]) was “Active”.

`O=C1CCC(N2C(=O)c3ccccc3C2=O)C(=O)N1` (configuration not stated) [THALIDOMIDE] was tested, and the Activity (Jurkat [6]) was 2%, the inhibition [1] was “Active” and the inhibition at 100 µM (Jurkat [3]) was 5%. The Activity (Jurkat [4]) was 2%, the inhibition [2] was “Active” and the inhibition at 10 µM (Jurkat [5]) was 5%.

`CCOC(=O)[C@H](Cc1ccccc1)N1C(=O)c2ccccc2C1=O` was tested, and the inhibition [1] was “Active” and the inhibition [2] was “Active”.

`C[C@@H](C(=O)O)N1C(=O)c2ccccc2C1=O` was tested, and the inhibition [1] was “Active” and the inhibition [2] was “Active”.

For `CC[C@H](C)[C@@H](C(=O)N/N=C\c1ccc(Cl)cc1)N1C(=O)c2ccccc2C1=O`, the Activity (Jurkat [6]) was “Toxic”, the inhibition [1] was “Active” and the inhibition (Jurkat [3]) was “Active”. For the same molecule, the Activity (Jurkat [9]) was “Active”, the inhibition [2] was “Active” and the inhibition at 10 µM (Jurkat [5]) was 13%. For the same molecule, the Activity (Jurkat [10]) was “Active”.

`CCOC(=O)[C@H]([C@@H](C)CC)N1C(=O)c2ccccc2C1=O` was tested, and the inhibition [1] was “Active” and the inhibition [2] was “Active”.

With `C[C@@H](C(=O)N/N=C\c1ccc(Cl)c(Cl)c1)N1C(=O)c2ccccc2C1=O` the inhibition (Jurkat [3]) was “Active” and the inhibition (Jurkat [5]) was “Active”.

`COc1ccc(/C=N\NC(=O)[C@H](Cc2ccccc2)N2C(=O)c3ccccc3C2=O)cc1` was tested, and the inhibition [1] was “Active” and the inhibition [2] was “Active”.

For `CCOC(=O)[C@H](C)N1C(=O)c2ccccc2C1=O`, the inhibition [1] was “Active” and the inhibition [2] was “Active”.

In the case of `NNC(=O)[C@H](Cc1ccccc1)N1C(=O)c2ccccc2C1=O`, the inhibition [1] is reported as “Active” and the inhibition [2] is reported as “Active”.

In the case of `CC[C@H](C)[C@@H](C(=O)N/N=C\c1ccc(OC)cc1)N1C(=O)c2ccccc2C1=O`, the inhibition [1] is reported as “Active” and the inhibition [2] is reported as “Active”.

For `C[C@@H](C(=O)N/N=C\c1ccc(Cl)cc1)N1C(=O)c2ccccc2C1=O`, the inhibition (Jurkat [3]) was “Active” and the inhibition (Jurkat [5]) was “Active”.

In the case of `O=C(N/N=C\c1ccc(Cl)c(Cl)c1)[C@H](Cc1ccccc1)N1C(=O)c2ccccc2C1=O`, the Activity (Jurkat [6]) is reported as “Toxic”, the inhibition (Jurkat [3]) is reported as “Active” and the inhibition (Jurkat [5]) is reported as “Active”.
